Columns and labels:
[1] = system: human coagulation factor XI protein; experiment: In vivo activity in human coagulation factor XI model mice (Experimental Example 3), plasma FXI protein by ELISA; details: humanized mice
Method: The humanized mice used in this experimental example were purchased from Cyagen Biosciences Co., Ltd. The humanized mice were randomly divided into groups, with 4 mice per group. The compound and PBS control (pH = 7.2) were administered to each group of mice, respectively. The day of the first administration was designated as day 0 of the experiment. The corresponding compound solutions were administered via a single subcutaneous injection based on animal body weight, at administration doses of 1 mg/kg and 5 mg/kg. PBS control mice were each administered PBS, with an administration volume of 10 mL/kg body weight. Orbital blood was collected before administration and on day 7, day 14, day 28, day 42, and day 63 after administration. Plasma was separated, and the content of the coagulation factor XI protein in the plasma was measured at each time point.
About 165 µL of blood was collected from the orbital veins for plasma collection. A 3.8% trisodium citrate anticoagulant was added to the whole blood in a volume ratio of 1:9 (anticoagulant:[…], v/v), and the mixture was centrifuged at 3000 rpm at 20 °C for 15 min to collect plasma. The content of the coagulation factor XI protein in the plasma obtained from the above groups of mice (test groups administered the compound and PBS control group) was measured using a Human Coagulation Factor XI ELISA kit (Sigma, Cat. No. RAB1385-1KT).
(§1) The coagulation factor XI protein inhibition rate was calculated according to the following equation: [formula]
Table 11 lists the measurement of FXI protein content in animal plasma before and on day 7, day 14, day 28, day 42, and day 63 after a single subcutaneous administration of siRNA ligand conjugates (TD01M01L01, TD02M01L01) at doses of 1 mg/kg and 5 mg/kg to humanized homozygous mice. […] Table 11. In vivo experimental design

[2] = system: human coagulation factor XI protein; experiment: In vivo activity in human coagulation factor XI model mice (Experimental Example 4), FXI protein by ELISA; details: female humanized homozygous mice, single subcutaneous 3 mg/kg
Method: The humanized mice used in this experimental example were purchased from Cyagen Biosciences Co., Ltd. The female humanized homozygous mice were randomly divided into groups, with 4 mice per group. The compound and PBS control (pH = 7.2) were administered to each group of mice, respectively. The day of the first administration was designated as day 0 of the experiment. The corresponding compound solutions were administered via a single subcutaneous injection based on animal body weight, at an administration dose of 3 mg/kg. PBS control mice were each administered PBS, with an administration volume of 10 mL/kg body weight. Orbital blood was collected before administration and on day 3, day 7, day 14, day 21, day 28, day 42, day 56, and day 70 after administration. Serum was separated, and the content of the coagulation factor XI protein in the serum at each time point was measured using a Human Coagulation Factor XI ELISA kit (Thermo, Batch No. 2350072722, Cat. No. EH118RB).
as §1
Table 13 lists the measurement of coagulation factor XI protein content in animal plasma before and on day 3, day 7, day 14, day 21, day 28, day 42, day 56, and day 70 after a single subcutaneous administration of siRNA ligand conjugates at a dose of 3 mg/kg to humanized homozygous mice. […] Table 13. In vivo experimental design

[3] = system: human coagulation factor XI protein; experiment: In vivo activity in AAV-FXI model mice, serum FXI protein by ELISA; details: AAV-FXI mice (C57BL/6 male), single subcutaneous 3 mg/kg
Method: 4-6 week old C57BL/6 male mice were injected via the tail vein with 1 × 10^11 vg of AAV8-FXI (WZ Biosciences). On day 28 after modeling, mice with an hFXI protein content of greater than 100 ng/mL were selected. The mice were randomly divided into groups based on body weight and were injected with 3 mg/kg of the dsRNA ligand conjugate of the present application (amount calculated based on siRNA only) on day 0. Orbital blood was collected on day 7, day 14, day 35, and day 56. Serum was separated, and the content of the coagulation factor XI protein in the serum at each time point was measured using a Human Coagulation Factor XI ELISA kit (Thermo, Cat. No. EH118RB).
as §1
The content of the coagulation factor XI protein in animal serum was measured before and on day 7, day 14, day 35, and day 56 after a single subcutaneous administration of the dsRNA ligand conjugate of the present application at a dose of 3 mg/kg to AAV-FXI mice (see Table 15). […] Table 15. In vivo experimental design

coagulation factor XI = experiment: In vivo activity in cynomolgus monkeys, plasma FXI activity; details: cynomolgus monkey plasma, subcutaneous once, 4.2 mg/kg (first row, dose by order of Table 17)
Method: On day 7 before administration, female cynomolgus monkeys weighing 2-4 kg were fasted overnight, and about 1 mL of blood was collected from the femoral vein. Plasma was collected by centrifugation. FXI protein (Human Coagulation Factor XI ELISAkit, Thermo, Cat. No. EH118RB), FXI activity (coagulation factor XI assay kit, Stago, Cat. No. 00723), and APTT (activated partial thromboplastin time assay kit, Stago, Cat. No. 00595) were measured. The monkeys were evenly divided into groups based on these indicators. On day 0, the dsRNA ligand conjugates of the present application (TD02M02L01, etc.) were injected. On day 0, day 3, day 7, day 14, day 21, day 28, day 37, day 54, and day 68, plasma was collected to measure plasma FXI protein, FXI activity, and activated partial thromboplastin time (APTT).
The coagulation factor XI activity inhibition rate was calculated according to the following equation: [formula]
The content of the coagulation factor XI protein, the FXI activity, and the activated partial thromboplastin time in animal plasma were measured before and on day 0, day 3, day 7, day 14, day 21, day 28, day 37, day 54, and day 68 after the subcutaneous administration of the dsRNA ligand conjugates of the present application at doses of 4.2 mg/kg and 14 mg/kg to cynomolgus monkeys (Table 17). […] Table 17. In vivo experimental design

## TD02M02L01: dsRNA ligand conjugate: TD02M02 with L01 (GalNAc) ligand at 3' end of sense strand SEQ ID NO 35; antisense SEQ ID NO 36 (sense GGATGATTTTCTTATATCA; antisense TGATATAAGAAAATCATCCTG; GalNAc L01 ligand at sense 3' end, 2'-OMe/2'-F, pattern not given here)
[1]; single subcutaneous 1 mg/kg, D7
  Relative inhibition rate (%) of FXI protein: 66.7%
[1]; single subcutaneous 1 mg/kg, D14
  Relative inhibition rate (%) of FXI protein: 70.2%
[1]; single subcutaneous 1 mg/kg, D28
  Relative inhibition rate (%) of FXI protein: 58.6%
[1]; single subcutaneous 1 mg/kg, D42
  Relative inhibition rate (%) of FXI protein: 70.5%
[1]; single subcutaneous 1 mg/kg, D63
  Relative inhibition rate (%) of FXI protein: 47.0%
[1]; single subcutaneous 5 mg/kg, D7
  Relative inhibition rate (%) of FXI protein: 91.5%
[1]; single subcutaneous 5 mg/kg, D14
  Relative inhibition rate (%) of FXI protein: 93.5%
[1]; single subcutaneous 5 mg/kg, D28
  Relative inhibition rate (%) of FXI protein: 88.4%
[1]; single subcutaneous 5 mg/kg, D42
  Relative inhibition rate (%) of FXI protein: 86.9%
[1]; single subcutaneous 5 mg/kg, D63
  Relative inhibition rate (%) of FXI protein: 66.3%
[2]; D3
  Relative inhibition rate (%) of FXI protein: 74.4%
[2]; D7
  Relative inhibition rate (%) of FXI protein: 93.7%
[2]; D14
  Relative inhibition rate (%) of FXI protein: 86.4%
[2]; D21
  Relative inhibition rate (%) of FXI protein: 88.0%
[2]; D28
  Relative inhibition rate (%) of FXI protein: 84.9%
[2]; D42
  Relative inhibition rate (%) of FXI protein: 63.3%
[2]; D56
  Relative inhibition rate (%) of FXI protein: 50.4%
[2]; D70
  Relative inhibition rate (%) of FXI protein: 21.4%
[3]; D7
  Relative inhibition rate (%) of FXI protein: 96.3%
[3]; D14
  Relative inhibition rate (%) of FXI protein: 97.3%
[3]; D35
  Relative inhibition rate (%) of FXI protein: 86.0%
[3]; D56
  Relative inhibition rate (%) of FXI protein: 57.4%
Coagulation factor XI; D3
  Relative inhibition rate (%) of FXI activity: 20.5%
Coagulation factor XI; D7
  Relative inhibition rate (%) of FXI activity: 66.0%
Coagulation factor XI; D14
  Relative inhibition rate (%) of FXI activity: 84.7%
Coagulation factor XI; D21
  Relative inhibition rate (%) of FXI activity: 88.9%
Coagulation factor XI; D28
  Relative inhibition rate (%) of FXI activity: 89.2%
Coagulation factor XI; D37
  Relative inhibition rate (%) of FXI activity: 92.6%
Coagulation factor XI; D54
  Relative inhibition rate (%) of FXI activity: 91.4%

From patent EP4772634A1, “DOUBLE-STRANDED RNA TARGETING COAGULATION FACTOR XI” (Chia Tai Tianqing Pharmaceutical Group Co., Ltd., priority 2023, dated 2025)
